Laboratory results as given in patent publication US10457709B2, “Antimicrobial peptides, their variants and uses” (priority 2015, dated 2019).
Square brackets hold non-standard residues; d marks the D form. Ends that are not written are not given here. Peptide text beside a SMILES is read from it.

Assays:
[1] = system: Escherichia coli (ATCC 25922); experiment: microbe, parasite or virus in culture; format: cell-based; conditions: ATCC 25922
Method: (§1) Minimum inhibition concentrations (MICs) were determined against Escherichia coli (ATCC 25922), Staphylococcus aureus (ATCC 25923), Klebsiella pneumoniae (ATCC 10031) and Pseudomonas aeruginosa (ATCC 27853). Also clinical strains of E. coli, K. pneumoniae, E. cloacae, P. aeruginosa, Serratia marcescens, Proteus mirabilis, S. pneumoniae, Acinetobacter baumannii, A. johnsonii and S. aureus were used for MICs assays. Additionally, clinical strains of yeast including Candida albicans, C. glabrata, C. parapsilosis and C. quillermondiae were used. The susceptibility of these microorganisms to Chain peptides were determined using micro broth dilution assay. Colonies of the respective microorganism from Muller Hinton (MH) agar plates incubated overnight were suspended in MH broth media and final concentration of microorganism was adjusted to 5.0×10^5 cfu/ml. An aliquot of 10 μl of each Chain peptide, or gentamicin, tetracycline as reference antibiotics were added in differing concentrations along with 90 μl of bacterial suspension to 96 well polypropylene plates and incubated at 37° C. for 20 to 24 hours. Concentrations of Chain peptides and reference antibiotics ranged from 0.125 to 128 μg/ml and the MICs were recorded as the lowest concentration with no visual growth of bacteria. Similarly, antifungal MICs were tested in Potato dextrose broth.

[2] = system: Klebsiella pneumoniae (ATCC 10031); experiment: microbe, parasite or virus in culture; format: cell-based; conditions: ATCC 10031
Method: as §1

[3] = system: Pseudomonas aeruginosa (ATCC 27853); experiment: microbe, parasite or virus in culture; format: cell-based; conditions: ATCC 27853
Method: as §1

[4] = system: Staphylococcus aureus (ATCC 25923); experiment: microbe, parasite or virus in culture; format: cell-based; conditions: ATCC 25923
Method: as §1

human erythrocytes = format: cell-based
Method: In hemolysis assays, the ability of peptides at 128 μg/ml concentration to lyse human erythrocytes to release hemoglobin was measured. The peptides described here preferably have low hemolytic activity (0.2 to 3.8% hemolysis) in mammal body. […] These peptides are useful as antimicrobial drugs as they show little or no side effects at concentrations needed to kill bacteria.
Minimum inhibition concentrations (MICs) were tested by microbroth dilution method and Chain 104, 105 and 109 inhibited the growth of Escherichia coli (ATCC 25922), Staphylococcus aureus (ATCC 25923), Klebsiella pneumoniae (ATCC 10031) and Pseudomonas aeruginosa (ATCC 27853) between 1-8 μg/ml respectively (Tables 3a, 3b and 3c). The membranolytic activities of the peptides were tested by measuring the release of hemoglobin from erythrocytes of fresh blood donated by voluntiers. Hemoglobin levels were determined spectrometrically by taking OD at 540 nm by following the protocol of Schmidtchen et al., 2011.

[5] = up to 45° C. for over 14 days; radial diffusion assay
Method: FIG. 8a. […] Antibacterial activity was tested by aliquoting 20 μg of peptides incubated at different temperature and activity was measured by zone of inhibition. Peptides at −20° C. served as control.
FIG. 8b. Thermostability of the chain peptides 201 (A-D) and 204 (E-H) tested at various temperatures over a period of 14 days by radial diffusion assay. Antibacterial activity was tested by aliquoting 20 μg of peptides incubated at different temperature and activity was measured by zone of inhibition. Peptides at −20° C. served as control.
FIG. 8c. Thermostability of the chain peptides 306 (A-D) and 308 (E-H) tested at various temperatures over a period of 14 days by radial diffusion assay. Antibacterial activity was tested by aliquoting 20 μg of peptides incubated at different temperature and activity was measured by zone of inhibition. Peptides at −20° C. served as control.
(§2) Thermal stability was evaluated by diluting peptides to the concentration of 2 mg/ml in PBS buffer (pH 7.4) and incubating at different temperatures, such as +4° C., 25° C. (RT), 37° C. and 45° C., peptides stored at −20° C. were used as control. After each time interval, 100 μl (2 mg/ml) of peptides were taken and stored at −20° C. for radial diffusion assay to determine the antibacterial activity (FIG. 8). Peptides were also tested by diluting them at different pH values starting from pH 4 to 9. The effect of NaCl on the antimicrobial activity was tested by adding different concentrations (50, 100 and 200 mM) of NaCl to MH medium and the minimum inhibitory concentrations were tested against 4 ATCC bacterial strains.

[6] = pH 4 to 9; radial diffusion assay
Method: FIG. 9a. pH stability of chain peptides 104 and 105 was determined by radial diffusion assay (RDA). Different pH ranging from 4-9 was used to check the zone of inhibition.
FIG. 9b. pH stability of chain peptides 201 and 204 was determined by radial diffusion assay (RDA). Different pH ranging from 4-9 was used to check the zone of inhibition.
FIG. 9c. pH stability of chain peptides 306 and 308 was determined by radial diffusion assay (RDA). Different pH ranging from 4-9 was used to check the zone of inhibition.
as §2

S. aureus COL (MRSA) = format: cell-based, Staphylococcus aureus
Method: as §1
(§3) Peptides Chain 104, Chain 105, Chain 201, Chain 308, Chain 310 were tested against antibiotic-sensitive strains of S. aureus RN4220 and methicillin resistant strains of S. aureus COL (MRSA). Chain peptides comprising of either L- or D-form amino acids were tested against these bacteria, and the D-form peptides were found have better activity compared to L-form (Table 6). Synergistic activity of chain peptides along with Ertapenem (4 μg/ml) was tested to know whether it will influence the activity against MRSA strains. […] Chain 310 has the best antibacterial activity against the MRSA strains with a MIC of 0.06 & 0.03 μg/ml along with Ertapenem (4 μg/ml) for both forms of L and D-peptides (Table 6).

S. aureus RN4220 = format: cell-based, Staphylococcus aureus; conditions: antibiotic sensitive strain S. aureus RN4220
Method: as §1, §3

[7] = system: MRSA strains (S. aureus COL); experiment: MIC, synergistic activity with Ertapenem (4 μg/ml); format: cell-based, Staphylococcus aureus; conditions: S. aureus COL, synergistic activity with 4 μg/ml Ertapenem
Method: as §1, §3

| Molecule | Minimum inhibitory concentration, Escherichia coli (ATCC 25922) [1] [µg/mL] | Minimum inhibitory concentration, Klebsiella pneumoniae (ATCC 10031) [2] [µg/mL] | Minimum inhibitory concentration, Pseudomonas aeruginosa (ATCC 27853) [3] [µg/mL] | Minimum inhibitory concentration, Staphylococcus aureus (ATCC 25923) [4] [µg/mL] | Side effects to humans as tested by hemolysis assay (human erythrocytes) | Thermostability (antibacterial activity retained) [5] | pH stability (antibacterial activity retained) [6] | Minimum inhibitory concentration (MIC), S. aureus COL (MRSA) (S. aureus COL (MRSA)) [µg/mL] | Minimum inhibitory concentration (MIC), S. aureus RN4220 (S. aureus RN4220) [µg/mL] | Minimum inhibitory concentration (MIC), S. aureus COL + 4 μg/ml Ertapenem [7] [µg/mL] |
| --- | --- | --- | --- | --- | --- | --- | --- | --- | --- | --- |
| KWIVWRWRFKR [Chain201] | 2 | 8 | 8 | 4 | little side effects | not hindered | not hindered | – | – | – |
| KRKWRWLFKKL [Chain310] | 4 | 16 | 1 | 8 | little side effects | – | – | – | – | – |
| RLKWFLLFRKR [Chain308] | 1 | 4 | 2 | 4 | little side effects | not hindered | not hindered | – | – | – |
| RLKRWRLFRKR [Chain306] | 8 | >128 | 64 | 2 | – | not hindered | not hindered | – | – | – |
| CC[C@@H](C)[C@@H](NC(=O)[C@@H](Cc1c[nH]c2ccccc12)NC(=O)[C@H](N)CCCCN)C(=O)N[C@@H](C(=O)N[C@H](Cc1c[nH]c2ccccc12)C(=O)N[C@H](CCCNC(=N)N)C(=O)N[C@H](Cc1c[nH]c2ccccc12)C(=O)N[C@H](CCCNC(=N)N)C(=O)N[C@H](Cc1ccccc1)C(=O)N[C@H](CCCCN)C(=O)N[C@H](CCCNC(=N)N)C(=O)O)C(C)C [201 D] (H-[dK][dW][dI][dV][dW][dR][dW][dR][dF][dK][dR]-OH) | – | – | – | – | – | – | – | 2 | 2 | 1 |
| RLKWFWLFRKR [Chain307] | 8 | 16 | 1 | 4 | little side effects | – | – | – | – | – |
| RRLIWRRFKWLR [Chain204] | 2 | 32 | 4 | 16 | little side effects | not hindered | not hindered | – | – | – |
| CC[C@@H](C)[C@@H](NC(=O)[C@@H](CCSC)NC(=O)[C@@H](C)NC(=O)[C@@H](CCCNC(=N)N)NC(=O)[C@@H](Cc1c[nH]c2ccccc12)NC(=O)[C@@H](CCCCN)NC(=O)[C@H](N)CCCNC(=N)N)C(=O)N[C@H](CCCNC(=N)N)C(=O)N[C@H](CC(C)C)C(=O)N[C@H](Cc1c[nH]cn1)C(=O)N[C@H](C)C(=O)N[C@H](CCCCN)C(=O)N[C@H](Cc1c[nH]c2ccccc12)C(=O)N[C@H](CC(C)C)C(=O)N[C@H](CCCNC(=N)N)C(=O)N[C@H](CCCCN)C(=O)O [105 D] (H-[dR][dK][dW][dR][dA][dM][dI][dR][dL][dH][dA][dK][dW][dL][dR][dK]-OH) | – | – | – | – | – | – | – | 8 | 16 | 2 |
| WWRLHAKWKLW [Chain109] | – | – | – | – | little side effects | – | – | – | – | – |
| RLKWFLLFRKR [Compound 308] | – | – | – | – | – | – | – | >64 | >64 | 0.5 |
| RKWRAMIRLHAKRLRK [Chain104] | – | – | – | – | little side effects | not hindered | not hindered | – | – | – |
| RKWRAMIRLHAKWLRK [Chain105] | – | – | – | – | little side effects | not hindered | not hindered | – | – | – |
| KRKWRWLFKKL [Compound 310] | – | – | – | – | – | – | – | >64 | >64 | 0.06 |
